Source: patent US6613761B1, “Benzoxazepine compounds, their production and use” (Takeda Chemical Industries, Ltd., priority 1995, dated 2003)

Assays:
[1] = molecular target: T1, squalene synthetase (Homo sapiens, UniProt P37268); test: Squalene synthetase inhibitory activity (human-derived enzyme prepared from HepG2 cells); format: biochemical; conditions: [1-3H] farnesyl pyrophosphate, 37° C., 45 minutes, read-out: Inhibitory Activity (IC50, 10^−9 M)
T1 construct: This suspension was used as the enzyme solution; endogenous in cells; host or cells: HepG2 human hepatic carcinoma cells; membrane fraction (105000×g sediment) of the sonicate
T1 sequence (P37268 1-417): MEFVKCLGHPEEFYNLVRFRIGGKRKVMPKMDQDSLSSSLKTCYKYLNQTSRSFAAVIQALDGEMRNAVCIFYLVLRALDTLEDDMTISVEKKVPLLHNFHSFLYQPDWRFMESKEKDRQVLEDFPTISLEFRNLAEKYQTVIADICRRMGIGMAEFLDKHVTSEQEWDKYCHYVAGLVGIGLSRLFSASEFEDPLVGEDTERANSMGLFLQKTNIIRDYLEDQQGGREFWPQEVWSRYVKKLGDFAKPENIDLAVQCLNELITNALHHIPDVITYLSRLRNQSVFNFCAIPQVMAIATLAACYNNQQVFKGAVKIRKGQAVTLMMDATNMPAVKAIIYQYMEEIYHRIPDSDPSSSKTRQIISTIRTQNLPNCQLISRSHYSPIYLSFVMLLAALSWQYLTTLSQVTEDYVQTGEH
Experimental: The squalene synthetase inhibitory activity was assayed as follows with the enzyme solutions prepared in accordance with the method described below.
More specifically, an enzyme solution (protein content 0.8 μg) prepared in accordance with the method described below was added to a solution (total volume 50 μl)) containing 5 μM [1-^3H] farnesyl pyrophosphate (specific activity 25 μCi/mole), 1 mM NADPH (nicotinamide adenine dinucleotide phosphate of reduced type), 5 mM MgCl2, 6 mM glutathione, a 100 mM buffer solution of potassium phosphate (pH 7.4) and a test drug (used as an aqueous solution or a DMSO solution), then the reaction was allowed to proceed at 37° C. for 45 minutes. To the reaction mixture was added 150 μl of a mixture of chloroform and methanol (1:2) to suspend the reaction, followed by adding 50 Al of chloroform and 50 μl of a 3N solution of sodium hydroxide. 50 μl of the chloroform layer (lower layer) containing the reaction mixture having squalene as the principal component and 3 ml of toluene-based liquid scintillator were mixed, and its radioactivity was determined by means of a liquid scintillation counter.
The squalene synthetase inhibitory activity was expressed in terms of the concentration inhibiting by 50% the radioactivity taken into the chloroform layer (IC50, molar concentration (M)), as shown in Table 7. Preparation of human-derived enzyme
Human hepatic carcinoma cells HepG2 (about 1×10^9 cells) obtained by incubation on a Dulbecco-modified Eagle's medium (37° C. in the presence of 5% CO2) containing 10% fetal bovine serum were suspended in 10 ml of an ice-cooled buffer solution (100 mM potassium phosphate buffer (pH 7.4), 30 mM nicotinamide and 2.5 mM MgCl2]. The cells were crashed by means of ultrasonication (for 30 seconds, twice). The sonicate thus obtained was subjected to centrifugation for 20 minutes (4° C.) with 10000×g. The supernatant layer was subjected to further centrifugation for 90 minutes (4° C.) with 105000×g. The sediment was then suspended in an ice-cooled 100 mM potassium phosphate buffer (pH 7.4), which was again subjected to centrifugation for 90 minutes (4° C.) with 105000×g. This fraction was suspended in an ice-cooled 100 mM potassium phosphate buffer solution (pH 7.4) (about 4 mg/ml protein concentration). This suspension was used as the enzyme solution.

[2] = system: Cholesterol biosynthesis in the liver; test: Assay of cholesterogenesis in the liver; format: in vivo; conditions: Wistar fatty rats, liver total sterol radioactivity from 14C sodium acetate
Experimental: Cholesterol biosynthesis in the liver of a rat was assayed as follows. Six-week old Wistar fatty rats were given orally a test compound [Compound 4-2 (suspended in a 0.5% methyl cellulose solution)], while the control group was orally given only a 0.5% methyl cellulose solution. One hour later, sodium acetate labelled with radioisotope ^14C (manufactured by Amasham) was given intravenously at the tail (10 μCi/0.3 ml physiological saline/rat). One hour layer, rats were sacrificed by decapitation, and 1.5 g of the first lobe of the liver was removed, which was saponified by immersing in 3.9 ml of an alkaline ethanol solution (KOH:EtOH=1:2) at 100° C. for two hours, followed by extraction with 5 ml each portion of petroleum ether three times. The extract solution was dried, which was dissolved in 3 ml of ethanol:acetone (1:1). To the solution was added 2 ml of a 0.5% digitonin-ethanol solution. The mixture was left standing for one hour. Resulting precipitates were collected as total sterol, and the radioactivity was measured by means of a liquid scintillation counter.

IC50 [1]	melting point	Compound	Cholesterogenesis inhibitory rate (%) ([2]; 0.6 mg/kg given orally)	Cholesterogenesis inhibitory rate (%) ([2]; 2.0 mg/kg given orally)
0.019 µM	134 to 136 °C	COc1cccc([C@H]2O[C@H](CC(=O)N[C@@H](Cc3ccccc3)C(=O)O)C(=O)N(CC(C)(C)C)c3ccc(Cl)cc32)c1OC [Compound 4-15]	–	–
0.011 µM	152 to 155 °C	COc1cccc([C@H]2O[C@H](CC(=O)N[C@@H](CCC(=O)O)C(=O)O)C(=O)N(CC(C)(C)C)c3ccc(Cl)cc32)c1OC [Compound 4-9]	–	–
0.012 µM	87 to 92 °C	COc1cccc([C@H]2O[C@H](CC(=O)N[C@@H](CC(C)C)C(=O)O)C(=O)N(CC(C)(C)C)c3ccc(Cl)cc32)c1OC [Compound 4-30]	–	–

The next lines start with the compound.

Compound	IC50 [1]	melting point	Cholesterogenesis inhibitory rate (%) ([2]; 0.6 mg/kg given orally)	Cholesterogenesis inhibitory rate (%) ([2]; 2.0 mg/kg given orally)
COc1cccc([C@H]2O[C@H](CC(=O)N3CCC(CC(=O)O)CC3)C(=O)N(CC(C)(C)C)c3ccc(Cl)cc32)c1OC [Compound 4-2, N-[(3R,5S)-7-chloro-5-(2,3-dimethoxyphenyl)-1-neopentyl-2-oxo-1,2,3,5-tetrahydro-4,1-benzoxazepine-3-acetyl]piperidine-4-acetic acid]	0.022 µM	137 to 140 °C	80.1%	90.4%
COc1cccc([C@H]2O[C@H](CC(=O)N3CCC(CP(=O)(O)O)CC3)C(=O)N(CC(C)(C)C)c3ccc(Cl)cc32)c1OC [Compound 23, N-[(3R,5S)-7-chloro-5-(2,3-dimethoxyphenyl)-1-neopentyl-2-oxo-1,2,3,5-tetrahydro-4,1-benzoxazepine-3-acetyl]-4-phosphonomethylpiperidine]	0.012 µM	174 to 175 °C	–	–
CCS(=O)(=O)NC(=O)C[C@H]1O[C@H](c2cccc(OC)c2OC)c2cc(Cl)ccc2N(CC(C)(C)C)C1=O [Compound 17-4]	0.0093 µM	135 to 140 °C	–	–
COc1cccc([C@H]2O[C@H](CC(=O)NCCC(=O)O)C(=O)N(CC(C)(C)C)c3ccc(Cl)cc32)c1OC [Compound 4-21]	0.011 µM	165 to 167 °C	–	–
CCC(C)[C@H](NC(=O)C[C@H]1O[C@H](c2cccc(OC)c2OC)c2cc(Cl)ccc2N(CC(C)(C)C)C1=O)C(=O)O (some centres unmarked) [Compound 4-8]	0.011 µM	137 to 139 °C	–	–
COc1cccc([C@H]2O[C@H](Cc3nc(=O)o[nH]3)C(=O)N(CC(C)(C)C)c3ccc(Cl)cc32)c1OC [Compound 8, (3R,5S)-7-Chloro-5-(2,3-dimethoxyphenyl)-1-neopentyl-3-(2,5-dihydro-5-oxo-1,2,4-oxadiazol-3-yl) methyl-1,2,3,5-tetrahydro-4,1-benzoxazepin-2-one]	0.012 µM	130 to 133 °C	–	–
